# Reference: publication PMC6646405, “A quantitative, high-throughput method identifies protein–glycan interactions via mass spectrometry” (Communications Biology, 2019)
# Biological target: T1, human neuraminidase 2 (NEU2) (Homo sapiens, UniProt Q9Y3R4)
# T1 construct: made in house
# Test: Time-resolved CUPRA enzyme kinetics, NEU2
# Assay type: biochemical
# Conditions: for fraction of OSmod substrate remaining (Fig2d time course): 200 mM aqueous ammonium acetate, pH 7, 25 °C
# Procedure: To apply CUPRA in this capacity, two or more substrates of interest are introduced, as their corresponding OS^mod, to a solution containing the desired CAZyme. Changes in substrate concentrations, as well as those of the corresponding enzyme products, are determined from the relative abundances of OS^mod-bound ^UniPproxy measured by time-resolved ESI-MS. Because of the manner in which the substrate and product concentrations are measured, the assay is insensitive to differences in their ESI-MS response factors and, consequently, independent of the nature of the chemical modification catalyzed by the enzyme. As a result, time-resolved CUPRA eliminates the need for calibration curves or internal standards, which are generally required with ESI-MS-based enzyme kinetics assays.
# Two glycosyl hydrolases, human neuraminidase 2 (NEU2) and 3 (NEU3), which preferentially cleave α2-3-linked Neu5Ac residues, were used to illustrate the ease with which time-resolved CUPRA can establish substrate specificities. We incubated libraries of the Neu5Ac-containing OS^mod with NEU2 (Fig. 2d) or NEU3 (Fig. 2e) and monitored their conversion to the corresponding desialylated OS^mod products at pH 7 and 25 °C. […] All OS^mod containing terminal α2-3-linked Neu5Ac were substrates of NEU3, with initial rates that are 10–50% that of HMO03. […] Substrates containing branching after the α2-3-linkage were poor substrates for both enzymes. […] We note, however, that previous reports have examined NEU2 and NEU3 activity under more acidic solution conditions. Furthermore, the nature of the substrate aglycone may influence the activity of human neuraminidases.
# The time-resolved CUPRA measurements were performed by manually mixing aliquots of stock solutions of NEU2 or NEU3 (final concentration 2 µM), ^UniPproxy (5 µM), substrates (Si, 5 µM each) and CUPRA linker (5 µM), all in 200 mM aqueous ammonium acetate at pH 7 and 25 °C. ESI mass spectra were collected continuously at the rate of 30 scans min^−1 starting at 3 min after mixing. The adduct distributions measured for the ^UniPproxy – CUPRA linker complex ions were used to apply SWARM. The time-dependent fractional abundance of a given substrate (FS,i) (Eq. 12), which was used to represent reaction progress, was calculated from the total Ab of ^UniPproxy bound to Si and corresponding product (Pi), corrected for Si consumed prior to data acquisition.12 FS,i=Ab^UniPproxySi/Ab^UniPproxySi+Ab^UniPproxyPi
# T1 sequence (Q9Y3R4 whole entry): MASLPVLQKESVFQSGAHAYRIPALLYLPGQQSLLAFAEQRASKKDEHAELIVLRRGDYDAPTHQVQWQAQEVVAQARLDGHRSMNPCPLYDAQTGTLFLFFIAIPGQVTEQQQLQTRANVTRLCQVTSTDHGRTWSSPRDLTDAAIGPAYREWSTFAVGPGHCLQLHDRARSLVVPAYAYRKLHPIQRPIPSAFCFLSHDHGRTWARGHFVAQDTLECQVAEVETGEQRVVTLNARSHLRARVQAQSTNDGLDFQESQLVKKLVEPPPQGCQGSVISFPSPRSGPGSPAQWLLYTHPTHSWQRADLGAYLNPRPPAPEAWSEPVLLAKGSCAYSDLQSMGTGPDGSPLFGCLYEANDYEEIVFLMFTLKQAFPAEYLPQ
structure (smiles),measurement,setting,value
"CC(=O)N[C@H]1[C@H](O[C@@H]2[C@H](O[C@]3(C(=O)O)C[C@H](O)[C@@H](NC(C)=O)[C@H]([C@H](O)[C@@H](CO)O[C@]4(C(=O)O)C[C@H](O)[C@@H](NC(C)=O)[C@H]([C@H](O)[C@H](O)CO)O4)O3)[C@@H](O)[C@H](O[C@H]3[C@H](O)[C@@H](O)[C@H](N(CCOCCOCCNC(=O)[C@H](Cc4ccccc4)NC(=O)[C@H](Cc4ccccc4)NC(=O)CCCC(=O)NCCc4ccc(S(N)(=O)=O)cc4)C(C)=O)O[C@@H]3CO)O[C@@H]2CO)O[C@H](CO)[C@H](O)[C@@H]1O [GA10, GalNAcβ1-4(Neu5Acα2-8 Neu5Acα2-3)Galβ1-4Glc-CL]",relative abundance of OSmod substrate (Fig2d time course),time 0 min,0.903
same,relative abundance of OSmod substrate (Fig2d time course),time 1 min,0.9038
same,relative abundance of OSmod substrate (Fig2d time course),time 2 min,0.8996
same,relative abundance of OSmod substrate (Fig2d time course),time 3 min,0.8888
same,relative abundance of OSmod substrate (Fig2d time course),time 4 min,0.9044
same,relative abundance of OSmod substrate (Fig2d time course),time 7 min,0.9102
same,relative abundance of OSmod substrate (Fig2d time course),time 8 min,0.9068
same,relative abundance of OSmod substrate (Fig2d time course),time 9 min,0.9088
same,relative abundance of OSmod substrate (Fig2d time course),time 10 min,0.9065
same,relative abundance of OSmod substrate (Fig2d time course),time 11 min,0.9097
same,relative abundance of OSmod substrate (Fig2d time course),time 12 min,0.9035
same,relative abundance of OSmod substrate (Fig2d time course),time 13 min,0.9029
same,relative abundance of OSmod substrate (Fig2d time course),time 14 min,0.9064
same,relative abundance of OSmod substrate (Fig2d time course),time 15 min,0.8954
same,relative abundance of OSmod substrate (Fig2d time course),time 16 min,0.9063
same,relative abundance of OSmod substrate (Fig2d time course),time 17 min,0.9123
same,relative abundance of OSmod substrate (Fig2d time course),time 18 min,0.9135
same,relative abundance of OSmod substrate (Fig2d time course),time 19 min,0.9061
same,relative abundance of OSmod substrate (Fig2d time course),time 20 min,0.9106
same,relative abundance of OSmod substrate (Fig2d time course),time 21 min,0.9179
same,relative abundance of OSmod substrate (Fig2d time course),time 22 min,0.9134
same,relative abundance of OSmod substrate (Fig2d time course),time 23 min,0.9095
same,relative abundance of OSmod substrate (Fig2d time course),time 24 min,0.9035
same,relative abundance of OSmod substrate (Fig2d time course),time 25 min,0.9132
same,relative abundance of OSmod substrate (Fig2d time course),time 26 min,0.907
same,relative abundance of OSmod substrate (Fig2d time course),time 27 min,0.9132
same,relative abundance of OSmod substrate (Fig2d time course),time 28 min,0.9116
same,relative abundance of OSmod substrate (Fig2d time course),time 29 min,0.9094
same,relative abundance of OSmod substrate (Fig2d time course),time 30 min,0.9084
same,relative abundance of OSmod substrate (Fig2d time course),time 31 min,0.9073
same,relative abundance of OSmod substrate (Fig2d time course),time 32 min,0.915
same,relative abundance of OSmod substrate (Fig2d time course),time 33 min,0.9164
same,relative abundance of OSmod substrate (Fig2d time course),time 34 min,0.9136
same,relative abundance of OSmod substrate (Fig2d time course),time 35 min,0.9113
same,relative abundance of OSmod substrate (Fig2d time course),time 36 min,0.9057
same,relative abundance of OSmod substrate (Fig2d time course),time 37 min,0.9031
same,relative abundance of OSmod substrate (Fig2d time course),time 38 min,0.9043
same,relative abundance of OSmod substrate (Fig2d time course),time 39 min,0.895
same,relative abundance of OSmod substrate (Fig2d time course),time 40 min,0.8976
same,relative abundance of OSmod substrate (Fig2d time course),time 41 min,0.8827
same,relative abundance of OSmod substrate (Fig2d time course),time 42 min,0.9129
same,relative abundance of OSmod substrate (Fig2d time course),time 43 min,0.905
same,relative abundance of OSmod substrate (Fig2d time course),time 44 min,0.9072
same,relative abundance of OSmod substrate (Fig2d time course),time 45 min,0.9125
same,relative abundance of OSmod substrate (Fig2d time course),time 46 min,0.9034
same,relative abundance of OSmod substrate (Fig2d time course),time 47 min,0.9131
same,relative abundance of OSmod substrate (Fig2d time course),time 48 min,0.9147
same,relative abundance of OSmod substrate (Fig2d time course),time 49 min,0.9115
same,relative abundance of OSmod substrate (Fig2d time course),time 50 min,0.9161
same,relative abundance of OSmod substrate (Fig2d time course),time 51 min,0.9162
same,relative abundance of OSmod substrate (Fig2d time course),time 52 min,0.9166
same,relative abundance of OSmod substrate (Fig2d time course),time 53 min,0.9066
same,relative abundance of OSmod substrate (Fig2d time course),time 54 min,0.9094
same,relative abundance of OSmod substrate (Fig2d time course),time 55 min,0.9043
same,relative abundance of OSmod substrate (Fig2d time course),time 56 min,0.9097
same,relative abundance of OSmod substrate (Fig2d time course),time 57 min,0.9071
same,relative abundance of OSmod substrate (Fig2d time course),time 58 min,0.9137
same,relative abundance of OSmod substrate (Fig2d time course),time 59 min,0.9089
same,relative abundance of OSmod substrate (Fig2d time course),time 60 min,0.9084
same,relative abundance of OSmod substrate (Fig2d time course),time 61 min,0.9152
same,relative abundance of OSmod substrate (Fig2d time course),time 62 min,0.9099
same,relative abundance of OSmod substrate (Fig2d time course),time 63 min,0.9041
same,relative abundance of OSmod substrate (Fig2d time course),time 64 min,0.9
same,relative abundance of OSmod substrate (Fig2d time course),time 65 min,0.9101
same,relative abundance of OSmod substrate (Fig2d time course),time 66 min,0.9104
same,relative abundance of OSmod substrate (Fig2d time course),time 67 min,0.9077
same,relative abundance of OSmod substrate (Fig2d time course),time 68 min,0.9072
same,relative abundance of OSmod substrate (Fig2d time course),time 69 min,0.9129
same,relative abundance of OSmod substrate (Fig2d time course),time 70 min,0.9057
same,relative abundance of OSmod substrate (Fig2d time course),time 71 min,0.9057
same,relative abundance of OSmod substrate (Fig2d time course),time 72 min,0.9132
same,relative abundance of OSmod substrate (Fig2d time course),time 73 min,0.9108
same,relative abundance of OSmod substrate (Fig2d time course),time 74 min,0.9071
same,relative abundance of OSmod substrate (Fig2d time course),time 75 min,0.9161
same,relative abundance of OSmod substrate (Fig2d time course),time 76 min,0.9095
same,relative abundance of OSmod substrate (Fig2d time course),time 77 min,0.9151
same,relative abundance of OSmod substrate (Fig2d time course),time 78 min,0.9122
same,relative abundance of OSmod substrate (Fig2d time course),time 79 min,0.9076
same,relative abundance of OSmod substrate (Fig2d time course),time 80 min,0.9134
same,relative abundance of OSmod substrate (Fig2d time course),time 81 min,0.9135
same,relative abundance of OSmod substrate (Fig2d time course),time 82 min,0.9162
same,relative abundance of OSmod substrate (Fig2d time course),time 83 min,0.9125
same,relative abundance of OSmod substrate (Fig2d time course),time 84 min,0.9098
same,relative abundance of OSmod substrate (Fig2d time course),time 97 min,0.9111
same,relative abundance of OSmod substrate (Fig2d time course),time 98 min,0.9062
same,relative abundance of OSmod substrate (Fig2d time course),time 99 min,0.9109
same,relative abundance of OSmod substrate (Fig2d time course),time 100 min,0.915
same,relative abundance of OSmod substrate (Fig2d time course),time 101 min,0.9087
same,relative abundance of OSmod substrate (Fig2d time course),time 102 min,0.916
same,relative abundance of OSmod substrate (Fig2d time course),time 103 min,0.9129
same,relative abundance of OSmod substrate (Fig2d time course),time 104 min,0.9139
same,relative abundance of OSmod substrate (Fig2d time course),time 105 min,0.9109
same,relative abundance of OSmod substrate (Fig2d time course),time 106 min,0.908
same,relative abundance of OSmod substrate (Fig2d time course),time 107 min,0.9138
same,relative abundance of OSmod substrate (Fig2d time course),time 108 min,0.911
same,relative abundance of OSmod substrate (Fig2d time course),time 109 min,0.9085
same,relative abundance of OSmod substrate (Fig2d time course),time 110 min,0.8819
same,relative abundance of OSmod substrate (Fig2d time course),time 111 min,0.9092
same,relative abundance of OSmod substrate (Fig2d time course),time 112 min,0.9111
same,relative abundance of OSmod substrate (Fig2d time course),time 113 min,0.9127
same,fraction of OSmod substrate remaining (Fig2d time course),"time 114 min, time-resolved CUPRA",0.9126
same,fraction of OSmod substrate remaining (Fig2d time course),"time 115 min, time-resolved CUPRA",0.9042
same,fraction of OSmod substrate remaining (Fig2d time course),"time 116 min, time-resolved CUPRA",0.909
same,fraction of OSmod substrate remaining (Fig2d time course),"time 117 min, time-resolved CUPRA",0.9097
same,fraction of OSmod substrate remaining (Fig2d time course),"time 118 min, time-resolved CUPRA",0.9085
same,fraction of OSmod substrate remaining (Fig2d time course),"time 119 min, time-resolved CUPRA",0.9043
same,fraction of OSmod substrate remaining (Fig2d time course),"time 120 min, time-resolved CUPRA",0.904
same,fraction of OSmod substrate remaining (Fig2d time course),"time 121 min, time-resolved CUPRA",0.904
same,fraction of OSmod substrate remaining (Fig2d time course),"time 122 min, time-resolved CUPRA",0.904
same,fraction of OSmod substrate remaining (Fig2d time course),"time 123 min, time-resolved CUPRA",0.904
same,fraction of OSmod substrate remaining (Fig2d time course),"time 124 min, time-resolved CUPRA",0.904
same,Relative activity NEU2,"time-resolved CUPRA, 200 mM aqueous ammonium acetate pH 7, 25 °C, relative to HMO03",0.000
